Where “and” joins values, the source holds several entries; their conditions need not be identical. Equal entries are not always repeated. Where two headings read alike, the source gives them in different places.
What was measured:
[1] = molecular target: SARS-CoV-2 nsp10-nsp16 complex (Severe acute respiratory syndrome coronavirus 2, UniProt P0DTD1); assay: biochemical
[2] = molecular target: HCoV-NL63 nsp10-nsp16 complex (Human coronavirus NL63, UniProt P0C6X5); assay: biochemical; type: biochemical
Chain of HCoV-NL63 nsp10-nsp16 complex (P0C6X5 6430-6729 limits assumed): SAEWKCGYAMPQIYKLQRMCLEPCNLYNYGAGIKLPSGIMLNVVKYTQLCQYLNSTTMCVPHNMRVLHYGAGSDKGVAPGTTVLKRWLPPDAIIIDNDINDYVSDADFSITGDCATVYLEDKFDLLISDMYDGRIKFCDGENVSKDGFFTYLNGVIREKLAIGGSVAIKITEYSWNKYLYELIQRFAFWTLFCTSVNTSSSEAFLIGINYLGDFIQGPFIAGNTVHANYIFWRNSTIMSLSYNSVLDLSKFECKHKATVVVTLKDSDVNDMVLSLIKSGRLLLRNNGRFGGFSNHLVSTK
Chain of HCoV-NL63 nsp10-nsp16 complex (P0C6X5 3909-4043 partner limits assumed): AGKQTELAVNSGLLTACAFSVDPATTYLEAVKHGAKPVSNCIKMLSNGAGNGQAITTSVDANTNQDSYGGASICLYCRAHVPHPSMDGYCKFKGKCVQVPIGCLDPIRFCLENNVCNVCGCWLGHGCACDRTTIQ

[3] = molecular target: HCoV-229E nsp10-nsp16 complex (Human coronavirus 229E, UniProt P0C6X1); assay: biochemical
Chain of HCoV-229E nsp10-nsp16 complex (P0C6X1 6459-6758 limits assumed): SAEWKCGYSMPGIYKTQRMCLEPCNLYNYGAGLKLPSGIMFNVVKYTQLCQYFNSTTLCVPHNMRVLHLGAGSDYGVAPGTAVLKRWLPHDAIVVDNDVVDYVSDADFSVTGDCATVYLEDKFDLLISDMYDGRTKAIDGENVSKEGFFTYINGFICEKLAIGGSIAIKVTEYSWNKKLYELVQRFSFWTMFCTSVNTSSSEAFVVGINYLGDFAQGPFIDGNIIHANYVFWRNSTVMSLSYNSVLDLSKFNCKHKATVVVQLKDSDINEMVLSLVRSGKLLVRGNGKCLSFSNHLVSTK
Chain of HCoV-229E nsp10-nsp16 complex (P0C6X1 3934-4068 partner limits assumed): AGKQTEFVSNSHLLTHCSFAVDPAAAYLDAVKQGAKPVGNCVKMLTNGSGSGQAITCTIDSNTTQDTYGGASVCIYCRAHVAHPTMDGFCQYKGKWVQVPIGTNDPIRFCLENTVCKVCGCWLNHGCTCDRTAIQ

[4] = molecular target: HCoV-OC43 nsp10-nsp16 complex (Human coronavirus OC43, UniProt P0C6X6); assay: biochemical
Chain of HCoV-OC43 nsp10-nsp16 complex (P0C6X6 6797-7095 limits assumed): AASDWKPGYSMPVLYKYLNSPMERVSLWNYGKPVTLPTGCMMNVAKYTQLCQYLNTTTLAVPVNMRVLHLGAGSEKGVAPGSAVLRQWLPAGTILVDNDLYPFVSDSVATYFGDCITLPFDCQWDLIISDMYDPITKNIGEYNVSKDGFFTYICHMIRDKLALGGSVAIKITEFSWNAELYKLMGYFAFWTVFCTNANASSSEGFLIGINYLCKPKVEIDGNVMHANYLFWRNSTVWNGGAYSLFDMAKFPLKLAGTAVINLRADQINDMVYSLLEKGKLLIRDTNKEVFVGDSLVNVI
Chain of HCoV-OC43 nsp10-nsp16 complex (P0C6X6 4233-4369 partner limits assumed): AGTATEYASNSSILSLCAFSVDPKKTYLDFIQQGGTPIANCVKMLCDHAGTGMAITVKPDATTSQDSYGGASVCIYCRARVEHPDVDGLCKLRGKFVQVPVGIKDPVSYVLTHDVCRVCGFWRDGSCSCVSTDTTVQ

[5] = molecular target: HCoV-HKU1 nsp10-nsp16 complex (Human coronavirus HKU1, UniProt P0C6X3); assay: biochemical
Chain of HCoV-HKU1 nsp10-nsp16 complex (P0C6X3 6854-7152 limits assumed): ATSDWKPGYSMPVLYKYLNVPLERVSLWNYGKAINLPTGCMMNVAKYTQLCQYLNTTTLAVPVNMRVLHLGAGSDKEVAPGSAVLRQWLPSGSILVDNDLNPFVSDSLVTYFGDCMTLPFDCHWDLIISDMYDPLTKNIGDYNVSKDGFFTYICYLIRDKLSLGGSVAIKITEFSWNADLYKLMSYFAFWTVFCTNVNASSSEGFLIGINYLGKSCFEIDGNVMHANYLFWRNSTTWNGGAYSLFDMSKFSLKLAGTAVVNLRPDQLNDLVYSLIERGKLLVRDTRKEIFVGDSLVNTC
Chain of HCoV-HKU1 nsp10-nsp16 complex (P0C6X3 4291-4427 partner limits assumed): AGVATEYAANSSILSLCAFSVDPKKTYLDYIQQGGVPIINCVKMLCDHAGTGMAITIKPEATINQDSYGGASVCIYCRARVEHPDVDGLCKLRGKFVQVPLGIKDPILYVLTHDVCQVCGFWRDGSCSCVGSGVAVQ

[6] = system: C[S+](CC[C@H](N)C(=O)[O-])C[C@H]1O[C@@H](n2cnc3c(N)ncnc32)[C@H](O)[C@@H]1O; assay: purified protein, by the assay type; settings: pH 7.5; 23.0 °C

## Nc1ncnc2c1ncn2[C@@H]1O[C@H](CSCC[C@H](N)C(=O)O)[C@@H](O)[C@H]1O [SAH, S-adenosylhomocysteine]
[1]
  IC50: 2.9 µM and 0.5 µM
[2]; HCoV-NL63
  fold lower IC50 with N7mGpppAUUAAA versus N7mGpppACCCCC: 30 fold
[2]; IC50, HCoV-NL63, substrate RNA N7mGpppACCCCC 0.3 μM, 2 μM 3H-SAM
  IC50: 2.4 ± 0.4 µM
[3]
  IC50: 0.9 ± 0.2 µM
[4]
  IC50: 1.4 ± 0.3 µM
[4]; IC50, HCoV-OC43, substrate RNA N7mGpppACCCCC 0.3 μM, 2 μM 3H-SAM
  IC50: 4.4 ± 1.2 µM
[5]
  IC50: 0.2 ± 0.05 µM
[5]; IC50, HCoV-HKU1, substrate RNA N7mGpppACCCCC 0.3 μM, 2 μM 3H-SAM
  IC50: 2.1 ± 0.1 µM

## HCoV-229E nsp10-nsp16 complex (Human coronavirus 229E)
[6]
  Km: 1.8 ± 0.2 µM

## HCoV-HKU1 nsp10-nsp16 complex (Human coronavirus HKU1 (isolate N2))
[6]
  Km: 4.8 ± 1.2 µM and 2.3 ± 0.03 µM

## HCoV-OC43 nsp10-nsp16 complex (Human coronavirus OC43)
[6]
  Km: 7.1 ± 0.8 µM and 2.9 ± 0.4 µM

## SARS-CoV nsp10-nsp16 complex (Severe acute respiratory syndrome-related coronavirus)
[6]
  Km: 5.7 ± 1.1 µM and 2.6 ± 0.4 µM

## SARS-CoV-2 nsp10-nsp16 complex (Severe acute respiratory syndrome coronavirus 2)
[6]
  Km: 5.0 ± 0.7 µM and 2.8 ± 0.4 µM
